Values quoted from earlier work in patent US20260130964A1, “PHARMACEUTICAL COMPOSITION COMPRISING HIGH PAY LOAD GINGER EXTRACT GRANULES AND PROCESS FOR PREPARATION THEREOF” (INDIA GLYCOLS LIMITED, priority 2022, published 2026).

Conditions: in vivo, po

biological half-life: < 2 hrs
SMILES: CCCCC[C@H](O)CC(=O)CCc1ccc(O)c(OC)c1 [Example 6-gingerol, 6-gingerol]
